Measurements from patent US20250041334A1, “Compositions for Virulence Suppression” (Solventum Intellectual Properties Company, priority 2021, published 2025).

Tests used:
[1] = system: S. aureus MN8 (pJY202); assay: Bacterial growth (OD600) in the Agr reporter assay; type: cell-based, Staphylococcus aureus MN8; settings: 1X TY media, pH about 6.0, 24 hours
Procedure: (§1) An S. aureus MN8 (pJY202) colony was picked from a TSA plate and grown overnight in TSB media with 5 µg/mL erythromycin with shaking at 37° C. The culture was centrifuged at 3000×g for 5 minutes and the supernatant was removed. The bacteria were washed once with water.
(§2) Individual growth media solutions for the assay were freshly prepared by adding materials to 1X TY media with 5 μg/mL erythromycin and then adjusting the pH of each solution to about pH 6.0 (using 1M NaOH or 1M HCl). All the growth media solutions were sterile filtered when possible using a 0.2 micrometer filter.
(§3) An aliquot of each growth media solution (200 microliters) was added to the well of a 96-well black, clear-bottom plate. Samples were prepared in triplicate (n=3). The bacteria samples were resuspended in 5 mL of 1X TY media. A 3 microliter sample of resuspended S. aureus MN8 (pJY202) was added to each well. […] Bacterial growth was measured at 600 nm (OD600) and Agr activity was measured as fluorescent intensity at 485 nm excitation/528 nm emission. Agr activity (relative fluorescence units, RFU) was normalized to bacterial growth (OD600) for each well. The Agr activity was measured at the 24 hour time point.

[2] = system: accessory gene regulator (agr) system, agr P2-P3 GFP reporter pJY202; assay: Agr Reporter (Staph Aureus) Assay; type: cell-based, Staphylococcus aureus MN8; settings: S. aureus MN8 (pJY202), 1X TY media, RFU normalized to OD600, 24 hours, n=3
Procedure: Description: The expression of many virulence factors in Staphylococcus aureus is controlled by the quorum sensing accessory gene regulator (agr) system. The plasmid pJY202 is an agr reporter that contains a fusion of the agr P2-P3 region with a gene coding for GFP.
as §1, §2
as §3, with “media.” for “media. A 3 microliter sample of resuspended S. aureus MN8 (pJY202) was added to each well.”

## O=P([O-])(O)O.[K+] [50 mM KH2PO4, KH2PO4]
[1]
  Growth OD600 at 24 hours: 1.02
[2]
  Agr Expression at 24 hours: 86 +/− 6
